Reference: ChEMBL document CHEMBL4825674, “Phorbol Esters from the Latex of Euphorbia umbellata: Bioguided Isolation of Highly Potent HIV-1 Latency Interrupters in Virus Reservoir Cells” (2021)

Tests used:
[1] = tested on: Human immunodeficiency virus 1; assay: Reactivation of HIV-1 latency infected in GFP-fused J-Lat 10.6 cells assessed as HIV-1 latency reactivation in reservoir cells at 2.24 uM incubated for 24 hrs flow cytometry analysis; assay type: functional
[2] = Reduction in CD4 expression in human MT4 cells at 1.94 uM incubated for 24 hrs by flow cytometry analysis; assay type: functional; design: scale not given: the % may be the effect or the level left
MT4 = assay: Cytotoxicity against human MT4 cells assessed as cell viability at 1 ug/ml incubated for 24 hrs by CellTiter Blue viability assay; assay type: functional, cell-based; details: dose 1.0 µg/ml
[3] = Reduction in CD4 expression in human MT4 cells at 1.77 uM incubated for 24 hrs by flow cytometry analysis; assay type: functional; design: scale not given: the % may be the effect or the level left
[4] = Reduction in CD4 expression in human MT4 cells at 1.82 uM incubated for 24 hrs by flow cytometry analysis; assay type: functional; design: scale not given: the % may be the effect or the level left
[5] = tested on: Human immunodeficiency virus 1; assay: Reactivation of HIV-1 latency infected in GFP-fused J-Lat 10.6 cells assessed as HIV-1 latency reactivation in reservoir cells at 0.097 to 9.7 uM incubated for 24 hrs flow cytometry analysis; assay type: functional; details: dose 0.097-9.7 µM
[6] = tested on: Human immunodeficiency virus 1; assay: Reactivation of HIV-1 latency infected in GFP-fused J-Lat 10.6 cells assessed as HIV-1 latency reactivation in reservoir cells at 0.088 to 8.85 uM incubated for 24 hrs flow cytometry analysis; assay type: functional; details: dose 0.088-8.85 µM

## CCCCCC(=O)O[C@H]1C(C)=C[C@]23C(=O)[C@@H](C=C(CO)[C@@H](O)[C@]12O)[C@H]1[C@@H](C[C@H]3C)C1(C)C
[1]
  Activity: 70%

## C/C=C(/C)C(=O)O[C@@H]1[C@@H](C)[C@]2(O)[C@@H]3C=C(C)C(=O)[C@@]3(O)[C@H](O)C(C)=C[C@H]2[C@H]2C(C)(C)[C@]12OC(=O)C(C)C
[2]
  Activity: 40%
MT4
  Activity: Not toxic
[3]
  Activity: 40%
[4]
  Activity: 40%
[5]
  Activity: 70%

## C/C=C(/C)C(=O)O[C@@H]1[C@@H](C)[C@]2(O)[C@@H]3C=C(C)C(=O)[C@@]3(O)[C@H](O)C(C)=C[C@H]2[C@H]2C(C)(C)[C@]12OC(=O)Cc1ccccc1
MT4
  Activity: Not toxic
[6]
  Activity: 70%
